For this assay, the system named is HBV cccDNA-dependent precore RNA in DESHAe82 cells. Description: DESHAe82 / DE19 cell culture system, cccDNA-derived precore RNA by qRT-PCR, MacSynergy II. Type of assay: cell-based, Hepatitis B virus. To be noted: ETV μM: 0.01, 0.0032, 0.001, 0.0003, 0.0001, 3E−05, 0. On the procedure:
In vitro combination studies were conducted using a modification of the assay system described in Cai et al (Antimicrobial Agents Chemotherapy, 2012. Vol 56(8):4277-88). A previously developed HepDE19 cell culture system (Guo et al. J. Virology (2007) 81(22): 12472-12484) supports HBV DNA replication and cccDNA formation in a tetracycline (Tet)-regulated manner, and produces a detectable reporter molecule which is dependent upon the production and maintenance of cccDNA.
In the HepDE19 cell culture system, the reporters are the precore RNA and its cognate protein product, the secreted HBV “e antigen” (HBeAg). In HepDE19 cells, precore RNA and HBeAg are only produced from the cccDNA circular template, because the ORF of HBeAg and its 5′ RNA leader are separated between the opposite ends of the integrated viral genome, and only become contiguous with the formation of cccDNA. Although an assay based on the HepDE19 cell culture system is effective for determining activity, the results of high throughput screening may be complicated because the HBeAg ELISA cross reacts with a viral HBeAg homologue, which is the core antigen (HBcAg) expressed largely in a cccDNA-independent fashion in HepDE19 cells. To overcome this complication, an alternative cell culture system (designated herein as DESHAe82 cell culture system and described in PCT/EP/2015/06838) has been developed which includes an in-frame HA epitope tag in the N-terminal coding sequence of HBeAg in the transgene of DESHAe82 cells, without disrupting any cis-element critical for HBV replication, cccDNA transcription, and HBeAg secretion.
A chemiluminescence ELISA assay (CLIA) for the detection of HA-tagged HBeAg with HA antibody serving as capture antibody and […] has been developed, eliminating the contaminating signal from HBcAg. […] In addition, a protocol for quantitative reverse transcription and polymerase chain reaction (qRT-PCR) that is specific for detection of precore RNA in either DE19 or DESHAe82 cells was developed and is also used for the detection of the cccDNA-dependent mRNA (precore RNA) that is translated to produce HBeAg or HA-HBeAg.
To test the compound combinations, DESHAe82 or DE19 cells (as indicated in examples) were plated in 96 well tissue-culture treated microtiter plates in DMEM/F12 medium supplemented with 10% fetal bovine serum+1% penicillin-streptomycin with Tet, and incubated in a humidified incubator at 37° C. and 5% CO2 overnight. […] The two inhibitors were tested both singly as well as in combinations in a checkerboard fashion such that each test concentration of inhibitor A was combined with each test concentration of inhibitor B to determine their combination effects on inhibition of cccDNA formation and expression. Untreated negative control samples (0.5% DMSO or media only) were included on each plate in multiple wells. Following a 9 day-incubation, media was removed and cells were subjected to RNA extraction to measure the cccDNA-dependent precore mRNA level. Total cellular RNAs were extracted using a 96-well format total RNA isolation kit ([…]-NAGEL, Cat. 740466.4) by following the instruction of manufacturer (vacuum manifold processing, two more extra washes of Buffer RA4). RNA samples were eluted in RNAase-free water. Quantitative real-time RT-PCR was performed with a Roche LightCycler480 and RNA Master Hydrolysis probe (Catalog number 04991885001, Roche) using primers and conditions for specific detection of cccDNA-dependent precore RNA. GAPDH mRNA levels were also detected by standard methods and used to normalize the precore RNA levels.
Background: In qPCR the cycle at which signal appears reflects the starting amount.

Turning to `CC[C@@H](C)NS(=O)(=O)c1ccc(F)c(C(=O)Nc2ccc(F)c(F)c2)c1` [Compound 3], the “Average percent inhibition versus negative control (precore RNA)” value runs as follows: (Compound 3 0.032 μM) −26.280%; (Compound 3 0.100 μM) −86.920%; (Compound 3 0.317 μM) 36.240%; (Compound 3 1.001 μM) 67.120%; (Compound 3 3.165 μM) 90.600%; (Compound 3 10 μM) 84.340%.

Values taken from patent US20220265817A1, “THERAPEUTIC COMPOSITIONS AND METHODS FOR TREATING HEPATITIS B” (priority 2017, published 2022).
